From US20120208750A1, “USE OF PROTEIN KINASE C DELTA (PKCD) INHIBITORS TO TREAT DIABETES, OBESITY, AND HEPATIC STEATOSIS” (JOSLIN DIABETES CENTER, INC., priority 2009, published 2012)

Key:
Type in all cases: in vivo, mouse
[1] = tested on: PKCd; test: PKCd mRNA expression in streptozotocin diabetic mice and insulin- or phlorizin-rescued mice (qPCR); conditions: STZ diabetic mice; rescue with s.c. insulin pellets or phlorizin 0.4 g/kg s.c. twice daily 10 days, FIG. 2F-G
Procedure: (§1) Expression of PKCd mRNA and protein was assayed in livers mice of various genotypes and under various conditions of diet. For all mRNA studies samples were prepared using RNeasy extraction kit according to the manufacturer protocol (QIAGEN), mRNA was measured by quantitative real-time PCR (qPRC), and results were normalized to TBP. For western blot analysis, 40-50 ug of each extract was loaded per lane. Each lane represents an individual animal. On a normal chow diet at 24 weeks of age, B6 mice have ˜60% higher levels of PKCd mRNA in liver than 129 mice (1.11±0.11 vs. 0.71±0.04, p<0.02) (FIG. 1A). […] These differences in PKCd messenger expression lead to similar differences in expression at the protein level when assessed by Western blot analysis of liver extracts (FIG. 1B). This difference in PKCd expression between B6 and 129 mice was also observed at 6 weeks of age (FIG. 1C), when 129 mice actually weigh slightly more than the B6 (22.1±0.5 vs. 19.8±0.3 g, p<0.001) and have identical glucose and insulin levels.
Streptozotocin treatment was performed as follows. Mice at 6 weeks of age received either daily i.p. injections of sodium citrate (pH 4.3) for controls or STZ (Sigma) resuspended in sodium citrate, 100 μg per g of body weight for three consecutive days. When these mice achieved fed glucose levels of >400 mg/dl for three consecutive days, they were separated into two equal groups. One group was not treated, while the other were treated with s.c. insulin pellets (LinShin, Toronto, ON, Canada), to obtain fed glucose levels of <200 mg/dl for at least three consecutive days. For phlorizin treatment of diabetic mice, male 8-week-old C57B1/6 mice were treated with a single intraperitoneal injection (200 μg/g body weight) of STZ (Sigma). PHZ (Sigma) was dissolved in a solution containing 10% ethanol, 15% DMSO, and 75% saline and was injected subcutaneously at a dose of 0.4 g/kg twice daily for 10 days from 8 days after the STZ injection. Control mice were injected with the same volume of vehicle.

[2] = tested on: PKCd; test: PKCd mRNA expression in liver of leptin and/or insulin treated ob/ob mice (qPCR); conditions: short-term infusion (osmotic pump 4 days; insulin pellets s.c.), FIG. 2C
Procedure: as §1
Although the difference in PKCd expression can be observed between B6 and 129 mice prior to the onset of obesity, obesity and insulin resistance also regulate PKCd. […]

[3] = tested on: PKCd; test: Western blot of liver protein expression in tunicamycin-treated mice (ER stress): PKCd; conditions: 1 μg/g i.p., 2, 4, 6 and 8 hours post-injection, FIG. 2E
Procedure: as §1
To induce an inflammation in vivo, mice were injected intraperitoneally with 100 μg LPS (Escherichia coli 55:B5; Sigma) or sterile saline as control. Mice were sacrificed 18 hours post-injection. […]

[4] = tested on: Bip; test: Western blot of liver protein expression in tunicamycin-treated mice (ER stress): Bip; conditions: 1 μg/g i.p., 2, 4, 6 and 8 hours post-injection, FIG. 2E

Row | Molecule | differences in PKCd expression vs control [1] | reversal of increased expression of PKCd in liver [2] | PKCd protein expression in liver during onset of ER stress [3] | ER stress chaperone protein Bip expression in liver [4]
1 | CN(N=O)C(=O)N[C@H]1C(O)O[C@H](CO)[C@@H](O)[C@@H]1O (mixture of isomers) [STZ, streptozotocin] | no differences | – | – | –
2 | insulin | no differences | not reversed | – | –
3 | tunicamycin | – | – | did not observe any alterations | clearly induced
4 | O=C(CCc1ccc(O)cc1)c1c(O)cc(O)cc1O[C@@H]1O[C@H](CO)[C@@H](O)[C@H](O)[C@H]1O [phlorizin] | no differences | – | – | –
5 | leptin: recombinant mouse leptin delivered by osmotic pump (protein, UniProt P41160 22-167, looked up) Leptin: VPIQKVQDDTKTLIKTIVTRINDISHTQSVSAKQRVTGLDFIPGLHPILSLSKMDQTLAVYQQVLTSLPSQNVLQIANDLENLRDLLHLLAFSKSCSLPQTSGLQKPESLDGVLEASLYSTEVVALSRLQGSLQDILQQLDVSPEC | – | not reversed | – | –
